Results taken from US6852696B2, “Inhibitors of glycosaminoglycans” (The University of Texas System, priority 1999, dated 2005).

System: DC-associated HA
Experiment: Binding of biotinylated peptide to DC surfaces
Conditions: biotinylated form
Experimental: FIGS. 8B-D. Synthesis and surface expression of HA by DC. (B) XS106 DC were labeled with ^3H-glucosamine and then examined for the incorporation of hyaluronidase-sensitive radioactivities (means+/−s.e.m.; n=5) into the indicated subcellular fractions. (C) XS106 DC were incubated with biotinylated Pep-1 or RP and then with PE-conjugated streptavidin (filed histograms) (Mummert et al. J. Exp. Med. 192:769-779, 2000) or bovine testis hyaluronidase. Baseline staining levels with PE-streptavidin alone are shown with open histograms. (D) The indicated DC preparations were examined for binding of biotinylated Pep-1 (filled) and RP (open). Peptide binding to splenic DC and bone marrow-DC was examined within the CD11c^+ populations.

Sequence: SATPASAPYPLA [RP, reference compound]
- binding to surfaces of XS106 DC: no significant binding
